Assay results taken from patent publication US6399585B1, “In Utero treatment of CFTR-related deficiencies” (priority 1996, dated 2002).

What was measured:
non-CFTR Cl- channels = conditions: cited from earlier work
cftr deficient mice = test: Survival of mice after in utero ATP or cftr treatment; type: in vivo, mouse
Protocol: (§1) Female heterozygous UNC knockout X C57bl/6 mouse 5th generation backcross mice were mated with either heterozygous and previously rescued homozygous knockout mice. At 15-16 days gestation animals were anesthetized as in Example (II)(C)(2) and the fetuses surgically exposed for injection. Virus (10^9 particles/ml of amniotic fluid) was injected into the amniotic fluid. Normal delivery of the animals was allowed to take place.
as §1, with “20 ul” for “Virus (10^9 particles/ml”, “a 20 mM ATP in sterile physiological saline” for “amniotic fluid)”

[1] = test system: intracellular calcium stores; test: Intracellular calcium stores in intestines (Calcium Green, confocal microscopy); type: in vivo, mouse; conditions: cftr−/− mice, in utero ATP-treatment, examined at 65 days old
Protocol: (§2) All tissues were sectioned and washed in phosphate buffered saline. Stock solutions (1 mM) of stains obtained from Molecular Probes were used. Two microliters/ml of either CaGreen-AM. (Molecular Probes) or Rhodamine green-UTP (Molecular Probes) was added to the tissue, then incubated for 1-2 hrs All samples were examined on a Noran Odyssey CLSM with a Nikon Diaphot inverted microscope. The software used for the imaging was Noran's Intervision running on a SGI Indy workstation.
Calcium plays an integral role in secretion. […] Calcium Green™, a flourescent stain for intracellular calcium, was applied to cross-sections of both control and in utero cftr-treated cftr−/− and cftr+/− mice. All samples were examined by confocal microscopy.
Intracellular calcium stores were evaluated after in utero ATP rescue, as previously described.

UTP receptors = UTP receptors in intestines (Rhodamine green-UTP staining); type: in vivo, mouse; conditions: knockout mice, ATP rescue, 65 day old mice
Protocol: as §2
Multiple purinergic receptors and multiple signal transduction pathways are activated in different membrane domains of tracheal epithelia (Hwang, Schwiebert et al. 1996) (Devidas and Guggino 1997). Functional characterization of the P2 purinoceptor superfamily support a diverse functional role for ATP and related nucleotides in the regulation of tissue function (Williams 1996). To examine the possible role of these purinergic receptors, changes in UTP receptors in treated and normal intestines were examined using UTP labeled with fluorescent rhodamine green to stain sections of intestines.
Changes in UTP receptors in ATP-treated intestines were examined using UTP labeled with fluorescent rhodamine green to stain sections of intestines.

ENaC = target: T1, ENaC (Homo sapiens, UniProt P37088+P51168+P51170); conditions: cited from earlier work
T1 sequence (P37088 1-669): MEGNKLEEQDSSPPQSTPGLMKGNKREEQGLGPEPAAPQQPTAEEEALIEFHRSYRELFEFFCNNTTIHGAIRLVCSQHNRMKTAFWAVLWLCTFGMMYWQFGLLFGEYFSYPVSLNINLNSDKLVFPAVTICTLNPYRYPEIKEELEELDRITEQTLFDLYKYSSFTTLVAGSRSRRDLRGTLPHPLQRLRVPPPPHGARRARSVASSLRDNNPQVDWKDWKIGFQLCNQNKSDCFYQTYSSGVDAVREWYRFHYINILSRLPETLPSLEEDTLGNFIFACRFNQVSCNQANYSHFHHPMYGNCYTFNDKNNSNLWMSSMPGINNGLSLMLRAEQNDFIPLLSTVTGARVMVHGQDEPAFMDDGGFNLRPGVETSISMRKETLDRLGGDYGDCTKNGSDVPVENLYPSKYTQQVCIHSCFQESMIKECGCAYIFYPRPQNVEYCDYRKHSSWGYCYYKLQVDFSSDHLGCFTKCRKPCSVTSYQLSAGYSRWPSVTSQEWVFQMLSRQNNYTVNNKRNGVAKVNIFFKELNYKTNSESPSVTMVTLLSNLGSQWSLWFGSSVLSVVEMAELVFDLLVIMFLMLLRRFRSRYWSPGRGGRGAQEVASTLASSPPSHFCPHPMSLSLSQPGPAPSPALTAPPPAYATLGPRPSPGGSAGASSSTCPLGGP
T1 sequence (P51168 1-640): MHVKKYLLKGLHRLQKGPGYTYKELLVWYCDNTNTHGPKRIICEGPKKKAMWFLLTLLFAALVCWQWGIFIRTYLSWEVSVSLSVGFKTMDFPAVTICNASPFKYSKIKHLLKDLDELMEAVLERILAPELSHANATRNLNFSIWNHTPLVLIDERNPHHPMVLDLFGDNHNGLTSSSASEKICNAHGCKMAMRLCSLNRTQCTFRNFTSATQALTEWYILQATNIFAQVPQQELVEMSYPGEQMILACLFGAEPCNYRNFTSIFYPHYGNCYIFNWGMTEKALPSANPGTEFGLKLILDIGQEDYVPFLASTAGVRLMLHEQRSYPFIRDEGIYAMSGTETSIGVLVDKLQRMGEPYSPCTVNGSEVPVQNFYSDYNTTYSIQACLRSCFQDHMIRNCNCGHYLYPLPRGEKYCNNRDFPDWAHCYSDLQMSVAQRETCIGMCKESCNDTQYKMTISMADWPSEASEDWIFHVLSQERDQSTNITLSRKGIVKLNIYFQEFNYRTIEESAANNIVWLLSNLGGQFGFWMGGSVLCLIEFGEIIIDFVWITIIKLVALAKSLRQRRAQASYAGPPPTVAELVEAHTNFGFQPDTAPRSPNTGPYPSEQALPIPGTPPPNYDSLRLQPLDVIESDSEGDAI
T1 sequence (P51170 1-649): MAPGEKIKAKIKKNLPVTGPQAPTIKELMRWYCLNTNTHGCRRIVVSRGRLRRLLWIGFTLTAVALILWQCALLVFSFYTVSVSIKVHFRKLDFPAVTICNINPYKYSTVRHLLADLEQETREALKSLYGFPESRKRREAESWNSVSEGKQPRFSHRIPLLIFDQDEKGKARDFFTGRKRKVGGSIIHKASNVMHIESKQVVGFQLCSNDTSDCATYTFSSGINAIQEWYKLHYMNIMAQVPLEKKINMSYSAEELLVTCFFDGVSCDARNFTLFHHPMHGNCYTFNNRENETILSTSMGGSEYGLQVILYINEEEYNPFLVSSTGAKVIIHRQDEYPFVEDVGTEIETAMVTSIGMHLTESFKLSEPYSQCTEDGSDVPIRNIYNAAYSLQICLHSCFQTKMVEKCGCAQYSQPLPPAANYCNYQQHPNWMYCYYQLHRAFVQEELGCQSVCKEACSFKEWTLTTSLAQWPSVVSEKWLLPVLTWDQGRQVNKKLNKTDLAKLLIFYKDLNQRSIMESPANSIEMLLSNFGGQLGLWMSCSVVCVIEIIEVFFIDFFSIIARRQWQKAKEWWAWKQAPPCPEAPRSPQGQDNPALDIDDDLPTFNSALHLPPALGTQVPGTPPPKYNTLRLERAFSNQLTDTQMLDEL

[2] = Table 8, living greater than 60 days

## O=c1ccn([C@@H]2O[C@H](COP(=O)(O)OP(=O)(O)OP(=O)(O)O)[C@@H](O)[C@H]2O)c(=O)[nH]1 [UTP, uridine triphosphate]
non-CFTR Cl- channels; aerosolized, CF airway epithelia
  Cl- (and liquid) secretion: induces Cl- (and liquid) secretion
non-CFTR Cl- channels; aerosolized, pilot studies in normal subjects
  mucociliary clearance: effective stimulator of mucociliary clearance
non-CFTR Cl- channels; short-term aerosolized, normal subjects and patients with CF
  tolerability: well tolerated

## Nc1ncnc2c1ncn2[C@@H]1O[C@H](COP(=O)(O)OP(=O)(O)OP(=O)(O)O)[C@@H](O)[C@H]1O [ATP, adenosine triphosphate]
Cftr deficient mice; 20 ul of 20 mM ATP into amniotic fluid at 15-16 days gestation
  survival of cftr deficient mice: improved the survival
Cftr deficient mice; [2]
  +/− Survivors, number: 9
  −/− Survivors, number: 3
Cftr deficient mice; Table 8, living greater than 60 days, treated at 15-16 days gestation
  +/+ Survivors, number: 4
Cftr deficient mice; Table 8, share of survivors
  +/+ Survivors (%): 25%
  +/− Survivors (%): 56%
  −/− Survivors (%): 19%
Cftr deficient mice; regardless of genotype
  toxicity inferred from genotype distribution of survivors: non-toxic
[1]
  intracellular Ca2+ stores in intestines: restored intracellular Ca2+ in cells of the crypt
UTP receptors
  UTP receptors in intestines: restored the UTP receptors

## Nc1nc(N)c2nc(-c3ccccc3)c(N)nc2n1 [triamterene]
ENaC
  ENaC conduction: block conduction

## N=C(N)NC(=O)c1nc(Cl)c(N)nc1N [Amiloride]
ENaC
  ENaC conduction: block conduction
